According to patent publication US20240325398A1, “COMBINATION THERAPIES” (Infinity Pharmaceuticals, Inc., priority 2014, published 2024):

Assays:
Farage = experiment: Combination study, ATPLite 72 h, dose matrix (Synergy Score, CI50); details: combination with Compound 1; Farage; 72 h
U-2932 = experiment: as above; details: combination with Compound 1, 72 h
RPMI-8226 = experiment: as above; details: combination with Compound 1
HH = experiment: as above; format: cell-based; details: combination with Compound 1
Method: The method is described as follows.
Additive effect is CI=1.0. […] Antagonistic effect is CI>1.0.
The Synergy Score is calculated as: […]

SU-DHL-10-epst = experiment: as above; details: combination with Compound 1, 72 h
RL = experiment: as above; details: combination with Compound 1, 72 h
Method: (§1) Cells are thawed from a liquid nitrogen preserved state. Once cells have been expanded and divide at their expected doubling times, screening begins. Cells are seeded in growth media in either black 1536-well or 384-well tissue culture treated plates. Cells are then equilibrated in assay plates via centrifugation and placed in incubators attached to the Dosing Modules at 37° C. for 24 hours before treatment. […] These Tzero (To) plates are read using ultra-sensitive luminescence on Envision plate readers (Perkin Elmer). Treated assay plates are incubated with compound for 72 hours. After 72 hours, plates are developed for endpoint analysis using ATPLite. All data points are collected via automated processes, quality controlled and analyzed using Zalicus software.
(§2) where T is treated cell count and V is untreated (vehicle) cell count (at 72 hours). I ranges from 0% (when T=V) to 100% (when T=0). […] The measure of effect in the experiment can be the inhibition of cellular response relative to the untreated level (vehicle alone). […] The inhibition ranges from 0% at the untreated level to 100% when T=0. Inhibition levels are negative for agents that actually increase levels. Other effect measures, such as an activity ratio r=T/V may be more appropriate for some assays. When activity ratios (e.g, fold increase over stimulated control) are being used, the effect can be measured using an induction 1=ln(T/V). With this definition, all effect expressions are the same as for inhibition.
(§3) Growth Inhibition (GI) is used as a measure of cell viability. […] A GI reading of 100% represents complete growth inhibition—T72 compound-treated and T0 vehicle signals are matched. […] A GI reading of 200% represents complete death of all cells in the culture well. Compounds reaching an activity plateau of GI 200% are considered cytotoxic. GI is calculated by applying the following test and equation:
(§4) Combination analysis data were collected in a 6×6 dose matrix. Synergy is calculated by comparing a combination's response to those of its single compound, against the drug-with-itself dose-additive reference model. Deviations from dose additivity may be assessed visually on an isobologram or numerically with a Combination Index (CI). […] Additive effect is CI=1.0. […] Antagonistic effect is CI>1.0.
(§5) To measure combination effects in excess of Loewe additivity, a scalar measure to characterize the strength of synergistic interaction termed the Synergy Score is devised. The Synergy Score is calculated as:
(§6) The fractional inhibition for each component agent and combination point in the matrix is calculated relative to the median of all vehicle-treated control wells. The Synergy Score equation integrates the experimentally-observed activity volume at each point in the matrix in excess of a model surface numerically derived from the activity of the component agents using the Loewe model for additivity. Additional terms in the Synergy Score equation (above) are used to normalize for various dilution factors used for individual agents and to allow for comparison of synergy scores across an entire experiment. The inclusion of positive inhibition gating or an Idata multiplier removes noise near the zero effect level, and biases results for synergistic interactions at that occur at high activity levels.
(§7) Loewe Volume (Loewe Vol) is used to assess the overall magnitude of the combination interaction in excess of the Loewe additivity model. Loewe Volume is particularly useful when distinguishing synergistic increases in a phenotypic activity (positive Loewe Volume) versus synergistic antagonisms (negative Loewe Volume). […] This model defines additivity as a non-synergistic combination interaction where the combination dose matrix surface should be indistinguishable from either drug crossed with itself.

DOHH-2 = experiment: as above; details: combination with Compound 1, 72 h
KARPAS-422 = experiment: as above; details: combination with Compound 1, 72 h
HBL-1 = experiment: as above; details: combination with Compound 1, 72 h
Method: as §1, §2, §3, §4, §5, §6
Loewe Volume (Loewe Vol) is used to assess the overall magnitude of the combination interaction in excess of the Loewe additivity model. Loewe Volume is particularly useful when distinguishing synergistic increases in a phenotypic activity (positive Loewe Volume) versus synergistic antagonisms (negative Loewe Volume). […] This model defines additivity as a non-synergistic combination interaction where the combination dose matrix surface should be indistinguishable from either drug crossed with itself. The calculation for Loewe additivity is:

OCI-Ly7 = experiment: as above; details: combination with Compound 1, 72 h
WSU-NHL = experiment: as above; details: combination with Compound 1, 72 h
SU-DHL-4-epst = experiment: as above; details: combination with Compound 1, 72 h
KARPAS-299 = experiment: as above; details: combination with Compound 1
NCI-H929 = experiment: as above; details: combination with Compound 1
Method: as §1, §2, §3, §4, §5, §6, §7

GRANTA-519 = experiment: as above; details: combination with Compound 1
TMD8 = experiment: as above; details: combination with Compound 1; TMD8; 72 h
OCI-Ly3 = experiment: as above; details: combination with Compound 1; OCI-Ly3; 72 h
Mino = experiment: as above; details: combination with Compound 1
Jeko-1 = experiment: as above; details: combination with Compound 1
[1] = as above; details: combination with Compound 1; OPM-2
OMP-2 = experiment: as above; details: combination with Compound 1; OPM-2

CN1CCc2c(c3ccccc3n2Cc2ccc(C(=O)NO)cc2)C1.Cl [Tubastatin A hydrochloride]
CI50 growth inhibition (Farage): S (S=0.01 to <0.5) | CI50 inhibition (Farage): T (T=0.5 to <0.7) | Synergy Score growth inhibition (Farage): A3 (A3=>3) | Synergy Score inhibition (Farage): A2 (A2=1 to <3) | CI50 growth inhibition (U-2932): U (U=0.7 to <1) | Synergy Score growth inhibition (U-2932): A1 (A1=0.0001 to <1) | Synergy Score inhibition (U-2932): A1 (A1=0.0001 to <1) | CI50 growth inhibition (RPMI-8226): U (U=0.7 to <1) | CI50 inhibition (RPMI-8226): U (U=0.7 to <1) | Synergy Score growth inhibition (RPMI-8226): A2 (A2=1 to <3) | Synergy Score inhibition (RPMI-8226): A1 (A1=0.0001 to <1) | CI50 growth inhibition (HH): S (S=0.01 to <0.5) | CI50 inhibition (HH): T (T=0.5 to <0.7) | Synergy Score growth inhibition (HH): A3 (A3=>3) | Synergy Score inhibition (HH): A2 (A2=1 to <3) | CI50 growth inhibition (SU-DHL-10-epst): T (T=0.5 to <0.7) | CI50 inhibition (SU-DHL-10-epst): T (T=0.5 to <0.7) | Synergy Score growth inhibition (SU-DHL-10-epst): A3 (A3=>3) | Synergy Score inhibition (SU-DHL-10-epst): A2 (A2=1 to <3) | CI50 growth inhibition (RL): W (W=≥1) | CI50 inhibition (RL): W (W=≥1) | Synergy Score growth inhibition (RL): A2 (A2=1 to <3) | Synergy Score inhibition (RL): A2 (A2=1 to <3) | CI50 growth inhibition (DOHH-2): T (T=0.5 to <0.7) | CI50 inhibition (DOHH-2): T (T=0.5 to <0.7) | Synergy Score growth inhibition (DOHH-2): A3 (A3=>3) | Synergy Score inhibition (DOHH-2): A2 (A2=1 to <3) | Synergy Score growth inhibition (KARPAS-422): A1 (A1=0.0001 to <1) | Synergy Score inhibition (KARPAS-422): A1 (A1=0.0001 to <1) | CI50 growth inhibition (HBL-1): U (U=0.7 to <1) | CI50 inhibition (HBL-1): W (W=≥1) | Synergy Score growth inhibition (HBL-1): A2 (A2=1 to <3) | Synergy Score inhibition (HBL-1): A1 (A1=0.0001 to <1) | CI50 growth inhibition (OCI-Ly7): S (S=0.01 to <0.5) | CI50 inhibition (OCI-Ly7): U (U=0.7 to <1) | Synergy Score growth inhibition (OCI-Ly7): A3 (A3=>3) | Synergy Score inhibition (OCI-Ly7): A2 (A2=1 to <3) | CI50 growth inhibition (WSU-NHL): T (T=0.5 to <0.7) | CI50 inhibition (WSU-NHL): T (T=0.5 to <0.7) | Synergy Score growth inhibition (WSU-NHL): A3 (A3=>3) | Synergy Score inhibition (WSU-NHL): A2 (A2=1 to <3) | CI50 growth inhibition (SU-DHL-4-epst): T (T=0.5 to <0.7) | CI50 inhibition (SU-DHL-4-epst): S (S=0.01 to <0.5) | Synergy Score growth inhibition (SU-DHL-4-epst): A3 (A3=>3) | Synergy Score inhibition (SU-DHL-4-epst): A2 (A2=1 to <3) | Synergy Score growth inhibition (KARPAS-299): A1 (A1=0.0001 to <1) | Synergy Score inhibition (KARPAS-299): A1 (A1=0.0001 to <1) | CI50 growth inhibition (NCI-H929): U (U=0.7 to <1) | CI50 inhibition (NCI-H929): T (T=0.5 to <0.7) | Synergy Score growth inhibition (NCI-H929): A3 (A3=>3) | Synergy Score inhibition (NCI-H929): A2 (A2=1 to <3) | CI50 growth inhibition (GRANTA-519): S (S=0.01 to <0.5) | CI50 inhibition (GRANTA-519): W (W=≥1) | Synergy Score growth inhibition (GRANTA-519): A2 (A2=1 to <3) | Synergy Score inhibition (GRANTA-519): A1 (A1=0.0001 to <1) | CI50 growth inhibition (TMD8): U (U=0.7 to <1) | CI50 inhibition (TMD8): U (U=0.7 to <1) | Synergy Score growth inhibition (TMD8): A3 (A3=>3) | Synergy Score inhibition (TMD8): A2 (A2=1 to <3) | CI50 growth inhibition (OCI-Ly3): U (U=0.7 to <1) | CI50 inhibition (OCI-Ly3): W (W=≥1) | Synergy Score growth inhibition (OCI-Ly3): A2 (A2=1 to <3) | Synergy Score inhibition (OCI-Ly3): A1 (A1=0.0001 to <1) | CI50 growth inhibition (Mino): U (U=0.7 to <1) | CI50 inhibition (Mino): U (U=0.7 to <1) | Synergy Score growth inhibition (Mino): A2 (A2=1 to <3) | Synergy Score inhibition (Mino): A1 (A1=0.0001 to <1) | CI50 growth inhibition (Jeko-1): W (W=≥1) | CI50 inhibition (Jeko-1): W (W=≥1) | Synergy Score growth inhibition (Jeko-1): A1 (A1=0.0001 to <1) | Synergy Score inhibition (Jeko-1): A1 (A1=0.0001 to <1) | CI50 growth inhibition [1]: W (W=≥1) | Synergy Score growth inhibition (OMP-2): A1 (A1=0.0001 to <1) | Synergy Score inhibition (OMP-2): A1 (A1=0.0001 to <1)

CC(C)C[C@H](NC(=O)[C@H](Cc1ccccc1)NC(=O)c1cnccn1)B(O)O [bortezomib, [(1R)-3-methyl-1-({(2S)-3-phenyl-2-[(pyrazin-2-ylcarbonyl)amino]propanoyl}amino)butyl]boronic acid]
CI50 growth inhibition (Farage): U (U=0.7 to <1) | CI50 inhibition (Farage): U (U=0.7 to <1) | CI50 growth inhibition (U-2932): U (U=0.7 to <1) | CI50 inhibition (U-2932): W (W=≥1) | CI50 growth inhibition (RPMI-8226): U (U=0.7 to <1) | CI50 inhibition (RPMI-8226): U (U=0.7 to <1) | CI50 growth inhibition (HH): U (U=0.7 to <1) | CI50 inhibition (HH): U (U=0.7 to <1) | CI50 growth inhibition (SU-DHL-10-epst): U (U=0.7 to <1) | CI50 inhibition (SU-DHL-10-epst): U (U=0.7 to <1) | CI50 growth inhibition (RL): U (U=0.7 to <1) | CI50 inhibition (RL): W (W=≥1) | CI50 growth inhibition (DOHH-2): U (U=0.7 to <1) | CI50 inhibition (DOHH-2): U (U=0.7 to <1) | CI50 growth inhibition (KARPAS-422): W (W=≥1) | CI50 inhibition (KARPAS-422): W (W=≥1) | CI50 growth inhibition (HBL-1): U (U=0.7 to <1) | CI50 inhibition (HBL-1): U (U=0.7 to <1) | CI50 growth inhibition (OCI-Ly7): U (U=0.7 to <1) | CI50 inhibition (OCI-Ly7): U (U=0.7 to <1) | CI50 growth inhibition (WSU-NHL): U (U=0.7 to <1) | CI50 inhibition (WSU-NHL): U (U=0.7 to <1) | CI50 growth inhibition (SU-DHL-4-epst): U (U=0.7 to <1) | CI50 inhibition (SU-DHL-4-epst): T (T=0.5 to <0.7) | CI50 growth inhibition (KARPAS-299): U (U=0.7 to <1) | CI50 inhibition (KARPAS-299): U (U=0.7 to <1) | CI50 growth inhibition (NCI-H929): U (U=0.7 to <1) | CI50 inhibition (NCI-H929): W (W=≥1) | CI50 growth inhibition (GRANTA-519): T (T=0.5 to <0.7) | CI50 inhibition (GRANTA-519): U (U=0.7 to <1) | CI50 growth inhibition (TMD8): U (U=0.7 to <1) | CI50 inhibition (TMD8): U (U=0.7 to <1) | CI50 growth inhibition (OCI-Ly3): U (U=0.7 to <1) | CI50 inhibition (OCI-Ly3): W (W=≥1) | CI50 growth inhibition (Mino): U (U=0.7 to <1) | CI50 inhibition (Mino): U (U=0.7 to <1) | CI50 growth inhibition (Jeko-1): U (U=0.7 to <1) | CI50 inhibition (Jeko-1): U (U=0.7 to <1) | CI50 growth inhibition [1]: W (W=≥1) | CI50 inhibition (OMP-2): W (W=≥1)
